Entries after “also recorded” stand apart in the source; their conditions may differ.
What was measured:
ErbB4 = ErbB4 (Homo sapiens, UniProt Q15303); conditions: ErbB4, cell-free; means ± SD
Procedure: (§1) The tyrosine kinase activities were determined using enzyme-linked immunosorbant assay (ELISA). The serine/threonine kinase activities were detected by Caliper Mobility Shift Assay on EZ Reader (Caliper Life Sciences, MA) according to the instruction.
The tyrosine kinase activities were determined in 96-well ELISA plates (Corning, NY, USA) precoated with 20 μg/mL Poly (Glu,Tyr)4:1. First, 80 μL of 5 μM ATP solution diluted in kinase reaction buffer (50 mM HEPES pH 7.4, 20 mM MgCl2, 0.1 mM MnCl2, 0.2 mM Na3VO4, 1 mM DTT) was added to each well. […] Subsequently, the kinase reaction was initiated by the addition of purified tyrosine kinase proteins diluted in 10 μL of kinase reaction buffer solution. Experiments at each concentration were performed in duplicate. After incubation for 60 min at 37 °C, the plate was washed three times with phosphate buffered saline (PBS) containing 0.1% Tween 20 (T-PBS). Next, 100 μL anti-phosphotyrosine antibody (PY99, 1:500 dilution) diluted in T-PBS containing 5 mg/mL BSA was added. After 30 min incubation at 37 °C, the plate was washed three times as before. Horseradish peroxidase-conjugated goat anti-mouse IgG (100 μL) diluted 1:2000 in T-PBS containing 5 mg/ml BSA was added. The plate was reincubated at 37 °C for 30 min, and then washed with PBS.

AKT1 = AKT1 (Homo sapiens, UniProt P31749); conditions: AKT1, cell-free
Procedure: as §1
(§2) The kinase domain of EGFR, ErbB-2, IGF1R, VEGFR2, FGFR1, PDGFRα, c-Src, c-Met, RON, c-Kit, EphA2 and EphB2 were expressed using the Bac-to-Bac^TM baculovirus expression system (Invitrogen, Carlsbad, CA, USA) and purified on Ni-NTA columns (QIAGEN Inc., Valencia, CA, USA). VEGFR1, PDGFRβ and c-Abl were purchased from Upstate Biotechnology Inc. (Charlottesville, Virginia, USA). […] EGF was purchased from R&D, Minneapolis, […]. Poly(Glu-Tyr)(4:1), the substrate of tyrosine kinase, was from Sigma-Aldrich Corp. St. Louis, MO, USA.

CDK2 = CDK2 (Homo sapiens, UniProt P24941); conditions: CDK2, cell-free
Procedure: as §1, §2

PKCb2 = PKCb2 (Homo sapiens, UniProt P05771); conditions: PKCb2, cell-free
Procedure: as §1, §2

p70S6K = p70S6K (Homo sapiens, UniProt P23443); conditions: cell-free
Procedure: as §1, §2

A549 cells = test: Cell proliferation SRB assay; assay type: cell-based; conditions: Homo sapiens, A549, 72 h, range given for four cell lines together, read-out: IC50 (antiproliferative)
A549 xenograft = test: Human tumor xenograft model, tumor growth; assay type: in vivo; conditions: nude mice, p.o. twice daily
Procedure: (§3) The mice were housed and maintained under specific-pathogen free (SPF) conditions. All animal procedures were performed according to the protocol approved by the Institutional Animal Care and Use Committee at Shanghai Institute of Materia Medica, Chinese Academy of Sciences (SIMM-AE-DJ-2010-01). Under sterile conditions, well-developed tumors were cut into 1-mm^3 fragments and transplanted s.c. into the right flank of nude mice using a trocar. When the tumor reached a volume reached 100 to 200 mm^3, the mice were randomly assigned into control and treatment groups. […] The sizes of the tumors were measured twice per week using microcalipers. The tumor volume (V) was calculated as follows: V = (length×width^2)/2. The body weights of the mice were observed simultaneously.

Calu-3 xenograft = test: Human tumor xenograft model, tumor growth; assay type: in vivo; conditions: nude mice, p.o. twice daily
Procedure: as §3

HO-8910 xenograft = test: Human tumor xenograft model, tumor growth; assay type: in vivo; conditions: nude mice, p.o. twice daily
Procedure: as §3

SK-OV-3 xenograft = test: Human tumor xenograft model, tumor growth; assay type: in vivo; conditions: nude mice, p.o. twice daily
Procedure: as §3

[1] = Body weights in xenograft studies; assay type: in vivo; conditions: nude mice, xenograft models, p.o. twice daily
Procedure: as §3

[2] = tested on: EGFR and ErbB2 phosphorylation in SK-OV-3 xenograft tumors; test: Pharmacodynamic effect in tumor extracts (Western blot); assay type: in vivo, nude mice; conditions: SK-OV-3 tumors, single dose 100 mg/kg
Procedure: Tumors were harvested at indicated times (n = 3 per time point) after treatment, immediately frozen in liquid nitrogen, and then homogenized in 500 µL protein extraction solutions (SBS Genetech, Shanghai, China). Tumor extracts were subjected to SDS-PAGE followed by immunoblotting.
Body weights of the nude mice were measured concurrently (B). […] Tumors were harvested at the indicated times after treatment and immediately frozen in liquid nitrogen. Western blot analysis was performed to determine the levels of phosphorylated EGFR and ErbB2.

[3] = Pharmacokinetics after single oral dose; conditions: rat, in vivo; rats, single oral dose 90 mg/kg; unpublished data
EGFR = EGFR (Homo sapiens, UniProt P00533); test: Rapid dilution irreversibility experiment; assay type: biochemical; parameters: The kinase domain of EGFR, ErbB-2, IGF1R, VEGFR2, FGFR1, PDGFRα, c-Src, c-Met, RON, c-Kit, EphA2 and EphB2 were expressed; made in house; conditions: preincubated 30 min at 100-fold IC50, diluted 100-fold, sampled 180 minutes
Procedure: (§4) The microplate was placed in the EZ Reader (Caliper Life Sciences, MA) and wells were repeatedly sampled for 180 minutes.
(§5) To verify this, we determined the reversibility of EGFR and ErbB2 binding using a dilution method. […] After incubating, the enzyme/inhibitor mixture is diluted 100-fold (i.e., to normal reaction conditions), reaction buffer plus ATP and substrate are added, and receptor kinase activity is measured continuously. In general, a reversible inhibitor dissociates quickly, allowing immediate recovery of enzymatic activity, whereas a slowly reversible inhibitor allows a gradual increase in activity. In contrast, an irreversible inhibitor prevents recovery of enzymatic activity.

ErbB2 = ErbB2 (Homo sapiens, UniProt P04626); test: Rapid dilution irreversibility experiment; assay type: biochemical; parameters: The kinase domain of EGFR, ErbB-2, IGF1R, VEGFR2, FGFR1, PDGFRα, c-Src, c-Met, RON, c-Kit, EphA2 and EphB2 were expressed; made in house; conditions: preincubated 30 min at 100-fold IC50, diluted 100-fold, sampled 180 minutes
Procedure: as §4, §5

PKCb2, sequence (P05771 1-673 isoform P05771-2): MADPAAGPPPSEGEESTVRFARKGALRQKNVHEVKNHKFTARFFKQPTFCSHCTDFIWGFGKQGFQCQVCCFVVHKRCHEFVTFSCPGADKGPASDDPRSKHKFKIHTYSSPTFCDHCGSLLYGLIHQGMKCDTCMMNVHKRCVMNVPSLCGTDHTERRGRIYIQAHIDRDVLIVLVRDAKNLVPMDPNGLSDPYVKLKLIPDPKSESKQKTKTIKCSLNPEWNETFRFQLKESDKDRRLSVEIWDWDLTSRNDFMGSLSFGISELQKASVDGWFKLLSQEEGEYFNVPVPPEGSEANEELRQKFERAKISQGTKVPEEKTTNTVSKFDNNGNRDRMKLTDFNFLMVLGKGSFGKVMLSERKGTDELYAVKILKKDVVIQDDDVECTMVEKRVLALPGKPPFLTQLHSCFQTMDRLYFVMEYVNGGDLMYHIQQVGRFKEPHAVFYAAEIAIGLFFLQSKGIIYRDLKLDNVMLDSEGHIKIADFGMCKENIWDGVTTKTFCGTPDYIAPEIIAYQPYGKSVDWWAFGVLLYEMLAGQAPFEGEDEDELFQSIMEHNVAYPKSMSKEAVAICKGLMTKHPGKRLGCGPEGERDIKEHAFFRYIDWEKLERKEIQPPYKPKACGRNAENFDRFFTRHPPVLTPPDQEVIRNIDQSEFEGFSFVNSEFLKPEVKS
AKT1, sequence (P31749 whole entry): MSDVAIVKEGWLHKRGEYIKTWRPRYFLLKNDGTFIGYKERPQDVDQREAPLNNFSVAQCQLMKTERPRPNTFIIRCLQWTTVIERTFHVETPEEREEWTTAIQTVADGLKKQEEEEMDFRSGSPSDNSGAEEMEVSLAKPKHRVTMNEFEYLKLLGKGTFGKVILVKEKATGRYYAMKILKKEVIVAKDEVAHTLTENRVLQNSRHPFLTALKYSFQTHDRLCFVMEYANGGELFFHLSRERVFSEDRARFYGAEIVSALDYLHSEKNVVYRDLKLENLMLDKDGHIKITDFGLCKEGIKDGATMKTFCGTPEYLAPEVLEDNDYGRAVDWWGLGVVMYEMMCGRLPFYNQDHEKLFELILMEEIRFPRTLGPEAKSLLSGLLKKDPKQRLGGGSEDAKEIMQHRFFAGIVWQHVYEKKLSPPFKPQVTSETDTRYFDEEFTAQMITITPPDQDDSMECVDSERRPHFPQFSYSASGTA
ErbB4, sequence (Q15303 26-1308, species assumed): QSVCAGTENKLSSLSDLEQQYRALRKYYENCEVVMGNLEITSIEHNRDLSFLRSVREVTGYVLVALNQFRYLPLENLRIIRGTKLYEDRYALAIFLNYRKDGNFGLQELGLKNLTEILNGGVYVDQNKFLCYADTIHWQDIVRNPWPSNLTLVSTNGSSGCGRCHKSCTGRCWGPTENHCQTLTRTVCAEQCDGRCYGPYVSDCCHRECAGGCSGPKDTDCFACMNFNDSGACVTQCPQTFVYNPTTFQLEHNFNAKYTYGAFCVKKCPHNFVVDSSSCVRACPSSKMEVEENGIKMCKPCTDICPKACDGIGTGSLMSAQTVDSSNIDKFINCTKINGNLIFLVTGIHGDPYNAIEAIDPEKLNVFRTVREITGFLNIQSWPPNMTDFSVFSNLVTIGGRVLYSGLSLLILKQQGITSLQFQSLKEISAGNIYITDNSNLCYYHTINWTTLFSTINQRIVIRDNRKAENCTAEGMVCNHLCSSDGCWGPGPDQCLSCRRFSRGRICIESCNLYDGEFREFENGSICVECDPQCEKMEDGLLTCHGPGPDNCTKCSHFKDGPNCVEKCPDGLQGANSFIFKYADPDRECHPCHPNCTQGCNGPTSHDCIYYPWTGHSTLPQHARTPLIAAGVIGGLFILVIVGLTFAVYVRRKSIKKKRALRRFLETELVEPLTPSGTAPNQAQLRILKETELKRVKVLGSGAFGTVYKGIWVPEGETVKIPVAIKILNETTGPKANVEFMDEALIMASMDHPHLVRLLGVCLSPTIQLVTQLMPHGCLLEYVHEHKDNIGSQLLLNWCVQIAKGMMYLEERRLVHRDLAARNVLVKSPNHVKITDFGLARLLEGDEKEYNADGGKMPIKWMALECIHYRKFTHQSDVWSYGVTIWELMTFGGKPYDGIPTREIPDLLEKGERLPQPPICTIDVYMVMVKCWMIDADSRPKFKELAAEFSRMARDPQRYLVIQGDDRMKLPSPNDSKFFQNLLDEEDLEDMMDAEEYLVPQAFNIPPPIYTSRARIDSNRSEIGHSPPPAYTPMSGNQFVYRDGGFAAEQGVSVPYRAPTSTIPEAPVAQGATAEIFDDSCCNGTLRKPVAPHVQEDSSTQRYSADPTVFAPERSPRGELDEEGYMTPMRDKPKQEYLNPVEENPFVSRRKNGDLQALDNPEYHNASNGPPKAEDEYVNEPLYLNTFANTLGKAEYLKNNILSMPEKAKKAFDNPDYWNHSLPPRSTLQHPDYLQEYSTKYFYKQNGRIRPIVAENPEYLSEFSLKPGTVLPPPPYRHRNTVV
p70S6K, sequence (P23443 whole entry): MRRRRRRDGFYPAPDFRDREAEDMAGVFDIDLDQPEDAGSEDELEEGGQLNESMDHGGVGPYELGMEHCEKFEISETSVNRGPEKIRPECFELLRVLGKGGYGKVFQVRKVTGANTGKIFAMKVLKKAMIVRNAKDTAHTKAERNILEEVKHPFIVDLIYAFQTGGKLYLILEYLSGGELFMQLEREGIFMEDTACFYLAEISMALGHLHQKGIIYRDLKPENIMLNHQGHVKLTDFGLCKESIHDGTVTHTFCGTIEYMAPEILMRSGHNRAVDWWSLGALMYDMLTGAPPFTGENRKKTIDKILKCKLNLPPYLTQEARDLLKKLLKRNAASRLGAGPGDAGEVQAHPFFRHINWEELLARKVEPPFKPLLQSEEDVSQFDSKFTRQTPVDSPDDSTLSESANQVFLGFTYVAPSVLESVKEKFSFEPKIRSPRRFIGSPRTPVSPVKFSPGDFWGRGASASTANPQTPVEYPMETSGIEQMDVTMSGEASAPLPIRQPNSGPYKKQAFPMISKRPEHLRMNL
ErbB2, sequence (P04626 720-987 limits assumed): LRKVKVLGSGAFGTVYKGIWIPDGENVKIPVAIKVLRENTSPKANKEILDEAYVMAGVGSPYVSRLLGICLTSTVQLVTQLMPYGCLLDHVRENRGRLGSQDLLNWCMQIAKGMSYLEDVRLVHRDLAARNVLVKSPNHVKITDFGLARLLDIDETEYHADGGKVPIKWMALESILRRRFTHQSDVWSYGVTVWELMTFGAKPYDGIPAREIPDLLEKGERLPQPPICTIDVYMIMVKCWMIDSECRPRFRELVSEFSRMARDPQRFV
EGFR, sequence (P00533 712-979 limits assumed): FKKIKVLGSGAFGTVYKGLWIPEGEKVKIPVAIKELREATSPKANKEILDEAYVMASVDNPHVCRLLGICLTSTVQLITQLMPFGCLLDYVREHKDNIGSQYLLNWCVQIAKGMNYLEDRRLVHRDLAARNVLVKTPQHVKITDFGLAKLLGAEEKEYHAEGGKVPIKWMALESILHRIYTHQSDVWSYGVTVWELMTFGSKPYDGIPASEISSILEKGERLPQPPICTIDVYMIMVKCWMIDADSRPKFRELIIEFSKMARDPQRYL

C=CC(=O)Nc1ccc2ncnc(Nc3ccc(OCc4cccc(F)c4)c(Cl)c3)c2c1 [AST1306]
IC50 (ErbB4): 0.0008 ± 0.0003 µM | IC50 (AKT1): > 10 µM | IC50 (CDK2): > 10 µM | IC50 (PKCb2): > 10 µM | IC50 (p70S6K): > 10 µM | IC50 (A549 cells): 6.2 to 7.5 µM | tumor growth (A549 xenograft): only slightly suppressed tumor growth | tumor growth (Calu-3 xenograft): dramatic suppression of tumor growth | tumor growth (HO-8910 xenograft): only slightly suppressed tumor growth | tumor growth (SK-OV-3 xenograft): dramatic suppression of tumor growth; also recorded: more efficacious than lapatinib | tumors after treatment for 7 d (SK-OV-3 xenograft; 7 d): tumors almost completely disappeared | body weights during treatment [1]: no obvious differences | time to evident inhibition of EGFR and ErbB2 activation in tumors [2]: ≤ 2 h | half-life [3]: < 3.6 h | recovery of EGFR enzymatic activity after dilution (EGFR): virtually no EGFR or ErbB2 activity was recovered | recovery of ErbB2 enzymatic activity after dilution (ErbB2): virtually no EGFR or ErbB2 activity was recovered

Reference: paper PMC3138742 (PLoS ONE, 2011)
